The record followed here is patent US6369069B1 (Aventis Pharma Deutschland GmbH, priority 1998, dated 2002).

The first experiment concerns Na^+-dependent Cl^−/HCO3^− exchanger (NCBE). In words: Inhibition of the Na+-dependent Cl−/HCO3− exchanger (NCBE) in human endothelial cells (pHi recovery, BCECF fluorescence, FLIPR). It is filed as cell-based. The settings on record: 10 μM. The procedure:
Inhibition of the Na^+-dependent Cl^−/HCO3^− exchanger (NCBE) in human endothelial cells
Human endothelial cells (ECV-304) were detached form culture flasks with the aid of trypsin/EDTA buffer (0.05/0.02% in phosphate buffer) and, after centrifugation (100 g, 5 min), taken up in a buffered saline solution (mmol/l: 115 NaCl, 20 NH4Cl, 5 KCl, 1 CaCl2, 1 MgSO4, 20 N-(2-hydroxyethyl)-piperazine-N[…]-2-ethanesulfonic acid (HEPES), 5 glucose and 1 g/l of bovine serum albumin; pH 7.4). This cell suspension was incubated at 37 °C. for 20 min with 5 μM BCECF acetoxymethyl ester. The cells were then washed and resuspended in a sodium- and bicarbonate-free buffer solution (mmol/l: 5 HEPES, 133.8 choline chloride, 4.7 KCl, 1.25 MgCl2, 0.97 K2HPO4, 0.23 KH2PO4, 5 glucose; pH 7.4).
For the subsequent fluorescence measurement in the FLIPR (Fluorescent Imaging Plate Reader), 100 μl of this cell suspension in each case containing 20,000 cells were added by pipette per well of a 96-well microtiter plate and this microtiter plate was centrifuged (100 g, 5 min). In the FLIPR, 100 μl of buffer solution in each case were then removed from a further prepared microtiter plate and added by pipette to each of the 96 wells of the measuring plate. In this case, for a 100% control, i.e. a recovery of the intracellular pH (pHi) by means of the NCBE, a bicarbonate- and sodium-containing buffer solution (mmol/l: 5 HEPES, 93.8 NaCl, 40 NaHCO3, 4.7 KCl, 1.25 CaCl2, 1.25 MgCl2, 0.97 Na2HPO4, 0.23 NaH2PO4, 5 glucose; pH 7.4) which contained 50 μM HOE 642 was used. For a 0% control, i.e. no pHi recovery at all, a bicarbonate-free, sodium-containing buffer solution (mmol/l: 5 HEPES, 133.8 NaCl, 4.7 KCl, 1.25 CaCl2, 1.25 MgCl2, 0.97 Na2HPO4, 0.23 NaH2PO4, 5 glucose; pH 7.4) to which 50 μM HOE 642 were also added was employed. The compounds according to the invention were added in various concentrations of the sodium- and bicarbonate-containing solution. After addition of the buffer solutions to the dye-loaded acidified cells situated in the measuring plate, the increase in the fluorescence intensity which corresponded to an increase in the pHi was determined in each well of the microtiter plate.
The kinetics were in this case recorded at 35° C. over a period of 2 minutes. The increase in the fluorescence intensities for different concentrations of the compounds according to the invention was related to the two controls and from this the inhibitory action of the substances was determined.
Regarding `N#CNS(=O)(=O)c1ccccc1-c1ccc(CN(Cc2nc3ccccc3[nH]2)C(=O)Cc2ccsc2)cc1` [Example 232], the “Residual activity % of the NCBE at 10 μM” value came out at 62.6%. On the same count and under the same terms, with `CC(C)CN(Cc1ccc(-c2ccccc2S(=O)(=O)NC#N)cc1)C(=O)Cc1ccccc1` [Example 122] the figure was 90.6%; with `N#CNS(=O)(=O)c1ccccc1-c1ccc(CN(Cc2ccccc2)C(=O)C(=O)c2ccco2)cc1` [Example 245], 73.0%.

Turning to `N#CNS(=O)(=O)c1ccccc1-c1ccc(CN(Cc2cccc(Cl)c2)C(=O)CCS(=O)(=O)c2ccccc2)cc1` [Example 281], the “Residual activity % of the NCBE at 10 μM” value turned out to be 68.6%.

Take `N#CNS(=O)(=O)c1ccccc1-c1ccc(CN(C(=O)CCOc2ccccc2)C2CCc3ccccc32)cc1` (stereo not drawn) [Example 344]: the “Residual activity % of the NCBE at 10 μM” value is reported as 52.2%. Still for that read-out and setting: next, `N#CNS(=O)(=O)c1ccccc1-c1ccc(CN(Cc2ccccc2Cl)C(=O)Cc2cccs2)cc1` [Example 143]: 35.7%. Still for that read-out and setting: with `N#CNS(=O)(=O)c1ccccc1-c1ccc(CN(CC2CCCO2)C(=O)CCOc2ccccc2)cc1` (stereo not drawn) [Example 348] the figure was 46.3%; with `COCCC(=O)N(Cc1ccc(-c2ccccc2S(=O)(=O)NC#N)cc1)CC1CCCO1` (stereo not drawn) [Example 328], 87.0%; with `N#CNS(=O)(=O)c1ccccc1-c1ccc(CN(CCc2ccc(S(N)(=O)=O)cc2)C(=O)Cc2cccs2)cc1` [Example 272], 65.0%.

As for `COc1cc(CN(Cc2ccc(-c3ccccc3S(=O)(=O)NC#N)cc2)C(=O)Cc2cccs2)cc(OC)c1OC` [Example 145], the “Residual activity % of the NCBE at 10 μM” value turned out to be 39.6%.

Take `N#CNS(=O)(=O)c1ccccc1-c1ccc(CN(C(=O)Cc2c[nH]c3ccccc23)C2CC2)cc1` [Example 205]: the “Residual activity % of the NCBE at 10 μM” value is 41.7%.

For `N#CNS(=O)(=O)c1ccccc1-c1ccc(CN(Cc2ccc(Cl)c(Cl)c2)C(=O)CCC2CCCCC2)cc1` [Example 264], the “Residual activity % of the NCBE at 10 μM” value came to 74.3%. Still for that read-out and setting: with `N#CNS(=O)(=O)c1ccccc1-c1ccc(CN(Cc2ccc(Cl)cc2Cl)C(=O)Cc2ccc(O)cc2)cc1` [Example 283] the figure was 80.0%; with `CN(Cc1ccc(-c2ccccc2S(=O)(=O)NC#N)cc1)C(=O)Cc1csc2ccccc12` [Example 214], 44.3%; with `Cc1ccc(CN(Cc2ccc(-c3ccccc3S(=O)(=O)NC#N)cc2)C(=O)c2cccs2)cc1` [Example 85], 51.1%.

As to `N#CNS(=O)(=O)c1ccccc1-c1ccc(CN(Cc2ccccc2)C(=O)Nc2c(F)cccc2F)cc1` [Example 297], the “Residual activity % of the NCBE at 10 μM” value turned out to be 80.4%. With `N#CNS(=O)(=O)c1ccccc1-c1ccc(CN(CCCc2ccccc2)C(=O)C(=O)c2cccs2)cc1` [Example 194], the “Residual activity % of the NCBE at 10 μM” value is recorded as 61.1%. The same measure, in the same setting: next, `N#CNS(=O)(=O)c1ccccc1-c1ccc(CN(Cc2cccc3ccccc23)C(=O)CCc2cccs2)cc1` [Example 289]: 39.2%; `N#CNS(=O)(=O)c1ccccc1-c1ccc(CN(Cc2cccc(-c3ccccc3)c2)C(=O)CCOc2ccccc2)cc1` [Example 347]: 19.3%.

Regarding `N#CNS(=O)(=O)c1ccccc1-c1ccc(CN(Cc2ccccn2)C(=O)CCCc2cccs2)cc1` [Example 188], the “Residual activity % of the NCBE at 10 μM” value was 52.3%. `CN(Cc1ccc(-c2ccccc2S(=O)(=O)NC#N)cc1)C(=O)Cc1cccs1` [Example 239]: the “Residual activity % of the NCBE at 10 μM” value is 56.3%.

Take `N#CNS(=O)(=O)c1ccccc1-c1ccc(CN(CCO)C(=O)CCC2CCCCC2)cc1` [Example 8]: the “Residual activity % of the NCBE at 10 μM” value was 86.7%. With `COCCC(=O)N(Cc1ccc(-c2ccccc2S(=O)(=O)NC#N)cc1)C1CCCc2ccccc21` (stereo not drawn) [Example 325], the “Residual activity % of the NCBE at 10 μM” value stood at 33.8%.

On to `COc1cc(C(=O)N(Cc2ccccc2)Cc2ccc(-c3ccccc3S(=O)(=O)NC#N)cc2)cc(OC)c1OC` [Example 49], for which the “Residual activity % of the NCBE at 10 μM” value is on record as 75.8%. Still for that read-out and setting: next, `C=CCOC(=O)N(Cc1ccc(OC)cc1)Cc1ccc(-c2ccccc2S(=O)(=O)NC#N)cc1` [Example 45]: 80.1%; `COC(=O)C(c1ccccc1)N(Cc1ccc(-c2ccccc2S(=O)(=O)NC#N)cc1)C(=O)Cc1cccs1` (stereo not drawn) [Example 268]: 79.3%. Same read-out and setting: next, `COc1ccc(CC(=O)N(Cc2ccc(F)cc2)Cc2ccc(-c3ccccc3S(=O)(=O)NC#N)cc2)cc1` [Example 177]: 64.4%.

Take `N#CNS(=O)(=O)c1ccccc1-c1ccc(CN(CC2CCCO2)C(=O)CC2CCCCC2)cc1` (stereo not drawn) [Example 358]: the “Residual activity % of the NCBE at 10 μM” value came to 55.5%.

As to `N#CNS(=O)(=O)c1ccccc1-c1ccc(CN(Cc2ccc(Cl)cc2Cl)C(=O)CCc2cccs2)cc1` [Example 288], the “Residual activity % of the NCBE at 10 μM” value came to 63.1%. Turning to `N#CNS(=O)(=O)c1ccccc1-c1ccc(CN(Cc2cccc3ccccc23)C(=O)Cc2ccc(O)cc2)cc1` [Example 284], the “Residual activity % of the NCBE at 10 μM” value is on record as 52.9%. Consider `N#CNS(=O)(=O)c1ccccc1-c1ccc(CN(Cc2cccs2)C(=O)CCC2CCCCC2)cc1` [Example 255], for which the “Residual activity % of the NCBE at 10 μM” value worked out at 61.0%.

Regarding `CC(C)=CCCC(C)=CCN(Cc1ccc(-c2ccccc2S(=O)(=O)NC#N)cc1)C(=O)CC1CCCCC1` [Example 353], the “Residual activity % of the NCBE at 10 μM” value came out at 47.9%. With `N#CNS(=O)(=O)c1ccccc1-c1ccc(CN(Cc2ccccc2)C(=O)C(N)c2ccccc2)cc1` (stereo not drawn) [Example 241], the “Residual activity % of the NCBE at 10 μM” value was 66.0%.

Regarding `N#CNS(=O)(=O)c1ccccc1-c1ccc(CN(CC2=Nc3ccccc3CN2)C(=O)Cc2cccs2)cc1` [Example 238], the “Residual activity % of the NCBE at 10 μM” value amounted to 54.7%.

The experiment is the same for the next values; noted with them: compound at 10 μM; R(3) to R(7) hydrogen series.
For `N#CNS(=O)(=O)c1ccccc1-c1ccc(CN(Cc2ccccc2)C(=O)Cc2ccco2)cc1` [Example 389], the “Residual activity % of the NCBE at 10 μM” value is 51.5%. The same measure, in the same setting: with `CC(C(=O)N(Cc1ccc(-c2ccccc2S(=O)(=O)NC#N)cc1)CC1(c2ccccc2)CCCC1)c1cccs1` (stereo not drawn) [Example 393] the figure was 16.7%; with `N#CNS(=O)(=O)c1ccccc1-c1ccc(CN(Cc2cccc(-c3ccccc3)c2)C(=O)CC2CCCC2)cc1` [Example 367], 25.5%.

Still in this experiment, the particulars now being: compound at 10 μM; sub-table with R7 substituent.
Regarding `Cc1ccc(-c2ccc(CN(Cc3cccs3)C(=O)CC3CCCCC3)cc2)c(S(=O)(=O)NC#N)c1` [Example 549], the “Residual activity % of the NCBE at 10 μM” value turned out to be 67.3%. `Cc1ccc(-c2ccc(CN(Cc3ccccc3)C(=O)CC3CCCCC3)cc2)c(S(=O)(=O)NC#N)c1` [Example 545]: the “Residual activity % of the NCBE at 10 μM” value is recorded as 70.1%. The same measure, in the same setting: next, `Cc1ccc(-c2ccc(CN(Cc3ccc4ccccc4c3)C(=O)Cc3cccs3)cc2)c(S(=O)(=O)NC#N)c1` [Example 515]: 68.9%; `Cc1ccc(-c2ccc(CN(Cc3ccccc3F)C(=O)Cc3cccs3)cc2)c(S(=O)(=O)NC#N)c1` [Example 519]: 95.6%; `Cc1ccc(-c2ccc(CN(Cc3cccc(Cl)c3Cl)C(=O)CC3CCCCC3)cc2)c(S(=O)(=O)NC#N)c1` [Example 552]: 61.5%.
